Test results as given in US9938279B2, “Method for treating disease or condition susceptible to amelioration by AMPK activators and compounds of formula which are useful to activate AMP-activated protein kinase (AMPK)” (ENERGENESIS BIOMEDICAL CO., LTD, priority 2013, dated 2018).

Key:
[1] = system: AMPK; assay: AMPK activation assay (western blot phospho-AMPK Thr172) in Hep G2; type: cell-based, human; conditions: Hep G2 cells, 30 min treatment
Experimental: (§1) Effects of compounds on AMPK activation were analyzed in mouse muscle cell C2C12, mouse fibroblast 3T3-L1 and human hepatocyte Hep G2. Those cell lines were cultured in high-glucose Dulbecco's modified Eagle's medium (DMEM) containing 10% fetal bovine serum (FBS), 4 mM L-glutamine, 2 mM sodium pyruvate and 1% penicillin/streptomycin (Invitrogen GibcoBRL, Carlsbad, Calif., USA) at 37° C. under 5% CO2. Cells were plated at 3×10^5 per well (6-well plate). 24 h after plating, cells were treated with indicated compounds for 30 min followed by cell lysis and western blot analysis. Equal amount of protein were separated by SDS-PAGE and then electroblotted on to PVDF membranes. Membranes were blocked with 3% BSA in PBS for 60 min and incubated with anti-phospho-AMPK (Thr172) antibody (1:2,000, Cell signaling), anti-AMPK antibody (1:2,000, Cell signaling), anti-Glut4 antibody (1:1,000, Millipore) or anti-actin antibody (1:5,000; Chemicon International) at 4° C. overnight followed by the corresponding secondary antibody for 1 h at room temperature (RT). Immunoreactive bands were detected by enhanced chemiluminescence (ECL; Pierce, Rockford, Ill., USA) and recorded using Kodakfilm (Rochester, N.Y., USA). The detected signals were scanned and then quantified by using TotalLab Quant software (TotalLab).

[2] = system: AMPK; assay: AMPK activation assay (western blot phospho-AMPK Thr172) in C2C12; type: cell-based, mouse; conditions: C2C12 cells, 30 min treatment
Experimental: as §1

[3] = system: AMPK; assay: AMPK activation assay (western blot phospho-AMPK Thr172) in 3T3-L1; type: cell-based, mouse; conditions: 3T3-L1 cells, 30 min treatment
Experimental: as §1

Row | SMILES | AMPK activation (% to control) Hep G2 ([1]; 1 microM) | AMPK activation (% to control) Hep G2 ([1]; 10 microM) | AMPK activation (% to control) Hep G2 ([1]; 100 microM) | AMPK activation (% to control) Hep G2 ([1]; 200 microM) | AMPK activation (% to control) C2C12 ([2]; 1 microM) | AMPK activation (% to control) C2C12 ([2]; 10 microM) | AMPK activation (% to control) C2C12 ([2]; 100 microM) | AMPK activation (% to control) C2C12 ([2]; 200 microM) | AMPK activation (% to control) 3T3-L1 ([3]; 1 microM) | AMPK activation (% to control) 3T3-L1 ([3]; 10 microM) | AMPK activation (% to control) 3T3-L1 ([3]; 100 microM) | AMPK activation (% to control) 3T3-L1 ([3]; 200 microM)
1 | Oc1nc(S)c2[nH]cnc2n1 [Example 2-hydroxy-6-mercaptopurine, 2-hydroxy-6-mercaptopurine] | 105 % to control | 108 % to control | 204 % to control | 222 % to control | 104 % to control | 109 % to control | 198 % to control | 251 % to control | 118 % to control | 122 % to control | 210 % to control | 277 % to control
2 | CNc1nc(O)nc2nc[nH]c12 [Example 2-hydroxy-6-methylaminopurine, 2-hydroxy-6-methylaminopurine] | 115 % to control | 148 % to control | 266 % to control | 354 % to control | 118 % to control | 151 % to control | 255 % to control | 361 % to control | 113 % to control | 162 % to control | 271 % to control | 382 % to control
3 | CCCNc1nc(O)nc2nc[nH]c12 [Example 2-hydroxy-6-propylaminopurine, 2-hydroxy-6-propylaminopurine] | 110 % to control | 133 % to control | 270 % to control | 339 % to control | 114 % to control | 122 % to control | 201 % to control | 324 % to control | 109 % to control | 129 % to control | 233 % to control | 361 % to control
4 | Nc1nc(O)nc2nc[nH]c12 [Example 2-hydroxyadenine, 2-hydroxyadenine] | 118 % to control | 143 % to control | 220 % to control | 338 % to control | 111 % to control | 166 % to control | 275 % to control | 315 % to control | 117 % to control | 171 % to control | 264 % to control | 351 % to control
